Data reported in US8193238B2, “Inhibition of microtubule protrusion in cancer cells” (University of Maryland, Baltimore, priority 2006, dated 2012).
Entries after “also recorded” stand apart in the source; their conditions may differ.

Key:
[1] = tested on: detached mammary epithelial cells; assay: Protrusions of detached mammary epithelial cells, general statements; assay type: cell-based, human and mouse
Experimental: Time-lapse video microscopy of detached mammary epithelial cells detected the extension of long, dynamic protrusions of the plasma membrane, and the present inventors have characterized the cytoskeletal mechanism underlying this novel observation. […] This response may be relatively short-lived, in specific embodiments, since mammary epithelial cells die by apoptosis within about 24 hours in suspension. However, cell lines that resist apoptosis through expression of either Bcl-2 or Bcl-xL will persistently form protrusions. Previous studies by the inventors indicate that such apoptotically-resistant cell lines will not form tumors in mice and lie dormant in distant tissues, in specific embodiments of the invention. […] These microtubule processes can extend more than 3 times the cell diameter, and undergo a rapid probing motion more than once per second. Formation of these microtubule protrusions is necessary for efficient cell-cell and cell-substratum attachment. In particular embodiments of the invention, this inherent microtubule response in detached mammary epithelial cells provides at least some of the invasive characteristics of breast cancer, independent of any tumor-specific genetic alteration, for example.
Breast tumor cells enter the bloodstream long before the development of clinically evident metastasis. However, the early presence of such bloodborne cells predicts poor patient outcome. Nearly 90% of human breast tumors arise as carcinomas from mammary epithelial cells, so it is important to characterize how these cells respond to the detached conditions that they would experience in the bloodstream. In the present invention, mammary epithelial cell lines produce long and dynamic protrusions of the plasma membrane when detached. Although human and mouse mammary epithelial cell lines die by apoptosis within 16 hours of detachment, this protrusive response persists for days in cells overexpressing either Bcl-2 or Bcl-xL, for example. […] Since bloodborne metastasis depends on both cell-cell and cell-matrix attachment, microtubule-based protrusions in detached mammary epithelial cells provide a novel target that could influence the metastatic spread of breast tumors.
Detachment-induced increases in Glu-tubulin could promote plasma membrane protrusions of microtubules by preventing efficient capture at the actin cortex. […] Therefore, our current model is that detachment increases stabilized microtubules enriched in Glu-tubulin, while decreased actin polymerization simply promotes extension of these microtubule protrusions.

[2] = tested on: chicken erythrocytes from day 2 embryos; details: cited from earlier work
MCF10A cells [3] = assay: Protrusions in suspended cells treated with cytoskeletal inhibitors (MCF10A); assay type: cell-based, human; details: MCF10A, 15 minutes of suspension; Latrunculin-A 5 μM, Colchicine 1 μM
Experimental: (§1) In FIG. 2A, after 15 minutes of suspension, protrusions in EpH4 and MCF10A cells are quite small (Control, white arrows). […] In FIG. 2B, populations of live, suspended cells were scored blindly for two or more protrusions longer than the cell radius. Each bar represents the mean+S.D. for three experiments in which at least 100 single cells were counted.
(§2) In order to initially characterize the cytoskeletal mechanism underlying these protrusions, suspended cells were treated with inhibitors of actin and tubulin polymerization (FIG. 2). After 15 minutes of suspension, the protrusions in untreated EpH4 or MCF10A cells remain fairly short (FIG. 2, white arrows). These early protrusions can often be difficult to detect with phase-contrast microscopy, due to interfering light refraction from the plasma membrane. […] Protrusions were more easily visible with immunofluorescence than phase contrast microscopy (FIG. 3, white arrows). Although actin filament staining was generally low along the length of the protrusion, dense points of actin were often found at the end of protrusions (FIG. 3, arrowheads).
The nontumorigenic human mammary epithelial cell line (MCF10A) or the indicated human breast tumor cell lines were grown in suspension for 30-60 minutes, and protrusions were counted in random fields with phase-contrast microscopy. Values represent the mean±S.D. of three experiments in which at least 100 cells were counted. […] This effect was most apparent in the highly metastatic but exemplary Bt-474 and MDA-MB-231 cells (pictured, black arrows). The exemplary MCF10A cells show far fewer and shorter protrusions at the same time point (pictured, white arrows). Such protrusions are not observed in attached cells.

EpH4 cells = assay: Protrusions in suspended cells treated with cytoskeletal inhibitors (EpH4); assay type: cell-based, mouse; details: EpH4, 15 minutes of suspension; Latrunculin-A 5 μM, Colchicine 1 μM
Experimental: as §1
EpH4 cells were suspended in either DMEM (Control) or media containing 5 μM Latrunculin-A (LA), 1 μM Colchicine or the combination of both drugs for 30 minutes. Cells were then spun onto glass coverslips and fluorescently stained for α-tubulin (green) and polymerized actin (red). Protrusions that are difficult to see by phase contrast are easily discernible with immunostaining for α-tubulin (white arrows). Protrusions contain little polymerized actin, except at points of concentration, which are often at the end (arrowhead).
EpH4 and B19 cells were suspended over 2% agarose coated plates to prevent attachment in either serum-free DMEM or media containing. Latrunculin-A (5 μM) to enhance protrusions. For co-staining of α-tubulin and actin, suspended cells were then centrifuged onto poly-L-lysine coated coverslips (280 g×5 min), fixed in 3.7% formaldehyde in PBS for 10 min, and permeablized with 0.1% Triton X-100 in PBS. Adhered cells were then stained for 1 hr at room temperature using FITC-conjugated anti-α-tubulin (1:200; Sigma), Alexa-594 phalloidin (1:100; Molecular Probes), and Hoescht 33342 (1:5000; Sigma).
as §2

MCF10A cells [4] = assay: Chemical inhibition of Latrunculin-A-enhanced microtubule protrusions in suspended cells; assay type: cell-based, human
Experimental: MCF10A cells were placed into suspension in the presence of the indicated chemical inhibitors targeted at specific signaling pathways or the corresponding vehicle controls. Cells were then treated with the actin polymerization inhibitor, Latrunculin-A (LA, 5 μM) for one hour to enhance protrusions. […] Thus, protrusions can be reduced by chemical inhibition of specific signaling proteins.

cells = assay type: cell-based; details: indicated concentrations, 2 hours
MDA-231 = assay: GFP-membrane protrusion counts after local anesthetics (MDA-231); assay type: cell-based, human; details: MDA-231, GFP-membrane; Lidocaine 50 mM, Tetracaine 2.5 mM; with or without LA
Experimental: (§3) Cells were then suspended in DMEM culture media with or without […] Latrunculin-A (LA) to induce protrusions by depolymerizing actin. […] Bars represent mean+S.D. of at least three blindly counted experiments.

MCF10A cells [5] = details: MCF10A treated two hours
Bt-474 = assay: GFP-membrane protrusion counts after local anesthetics (Bt-474); assay type: cell-based, human; details: Bt-474, GFP-membrane; Lidocaine 50 mM, Tetracaine 2.5 mM; with or without LA
Experimental: as §3

metastasis = details: known, via unclear mechanism; cited from earlier work

Q: Which protrusions [1] does the source give for C=C1[C@@H](C)[C@H]2[C@H](Cc3ccccc3)NC(=O)[C@]23[C@H](OC(C)=O)/C=C/[C@@](C)(O)C(=O)[C@@H](C)C/C=C/[C@H]3[C@@H]1O [Cytochalasin-D] here?
A: Its protrusions is “enhanced; also recorded: promotes the extension of microtubule protrusions”.

Q: What about the microtubule processes [2] of the same compound?
A: Its microtubule processes is “promotes microtubule processes”.

Q: And the protrusions (MCF10A cells [3])?
A: The protrusions was “increased protrusions”.

Q: And the protrusions (EpH4 cells)?
A: The protrusions was “increased protrusions”.

Q: For Cn1sc(=O)n(Cc2ccccc2)c1=O [TDZD-8], which protrusions (MCF10A cells [4]; MCF10A in suspension, then LA 5 μM one hour, sodium orthovanadate 1 mM, S-Trityl-L-Cysteine 100 μM, TDZD-8 20 μM) is on record?
A: The protrusions was “strongest inhibition of protrusions”.

Q: And the protrusion frequency (MCF10A cells [4]; one hour of treatment)?
A: Its protrusion frequency is “reduce protrusion frequency significantly”.

Q: What about the cell viability (cells) of the same compound?
A: The cell viability was “did not reduce cell viability significantly”.

Q: With CCCCNc1ccc(C(=O)OCCN(C)C)cc1 [Tetracaine] as the compound, how does the protrusions (MDA-231) read?
A: Its protrusions is “inhibited significantly”.

Q: What about the “concentration showing significant cell toxicity” value (MCF10A cells [5]) of the same compound?
A: The value was at least 3000 µM.

Q: And the cell toxicity (MCF10A cells [5]; Lidocaine up to 50 mM)?
A: Its cell toxicity is “cytotoxic”.

Q: And the protrusions (Bt-474)?
A: The protrusions was “inhibited significantly”.

Q: And the metastasis (metastasis)?
A: Its metastasis is “reduce metastasis”.
